Measurements reported in ChEMBL document CHEMBL3861975, “Discovery and Rational Design of Natural-Product-Derived 2-Phenyl-3,4-dihydro-2H-benzo[f]chromen-3-amine Analogs as Novel and Potent Dipeptidyl Peptidase 4 (DPP-4) Inhibitors for the Treatment of Type 2 Diabetes” (J Med Chem, 2016).
Calls of active or inactive are those of the source. The rule behind the calls is not given here.

Key:
[1] = Half life in Sprague-Dawley rat at 1 mg/kg, iv by LC-MS/MS method; format: ADME, organism-based; conditions: in vivo
[2] = AUC (0 to t) in Sprague-Dawley rat at 1 mg/kg, iv by LC-MS/MS method; format: ADME, organism-based; conditions: in vivo
[3] = AUC (0 to infinity) in Sprague-Dawley rat at 1 mg/kg, iv by LC-MS/MS method; format: ADME, organism-based; set-up: dose 1 mg/kg, route intravenous, time infinity; conditions: in vivo
[4] = Clearance in Sprague-Dawley rat at 1 mg/kg, iv by LC-MS/MS method; format: ADME, organism-based; conditions: in vivo
[5] = Mean residence time (0 to infinity) in Sprague-Dawley rat at 1 mg/kg, iv by LC-MS/MS method; format: ADME, organism-based; conditions: in vivo
[6] = Volume of distribution at steady state in Sprague-Dawley rat at 1 mg/kg, iv by LC-MS/MS method; format: ADME, organism-based; conditions: in vivo, read-out: Vdss
[7] = Half life in Sprague-Dawley rat at 2 mg/kg, po by LC-MS/MS method; format: ADME, organism-based; conditions: in vivo
[8] = AUC (0 to t) in Sprague-Dawley rat at 2 mg/kg, po by LC-MS/MS method; format: ADME, organism-based; conditions: in vivo
[9] = AUC (0 to infinity) in Sprague-Dawley rat at 2 mg/kg, po by LC-MS/MS method; format: ADME, organism-based; set-up: dose 2 mg/kg, route oral, time infinity; conditions: in vivo
[10] = Cmax in Sprague-Dawley rat at 2 mg/kg, po by LC-MS/MS method; format: ADME, organism-based; set-up: dose 2 mg/kg, route oral; conditions: in vivo
[11] = Mean residence time (0 to infinity) in Sprague-Dawley rat at 2 mg/kg, po by LC-MS/MS method; format: ADME, organism-based; conditions: in vivo
[12] = Tmax in Sprague-Dawley rat at 2 mg/kg, po by LC-MS/MS method; format: ADME, organism-based; conditions: in vivo
[13] = Oral bioavailability in Sprague-Dawley rat at 2 mg/kg by LC-MS/MS method; format: ADME, organism-based; conditions: in vivo
Mus musculus [14] = assay: Improvement in glucose tolerance in ICR mouse at 1 to 10 mg/kg, po administered as single dose 60 mins before glucose challenge and measured 30 to 60 mins post glucose challenge by OGTT method; format: functional, organism-based
Mus musculus [15] = organism: Mus musculus; conditions: 1 to 10 mg/kg
Mus musculus [16] = organism: Mus musculus; assay: animal or person; conditions: ICR, ip, 24 h, read-out: INH
Description: (§1) In-vivo inhibition of DPP4 in ICR mouse at 5 mg/kg, ip administered as single dose using Gly-Pro-AMC as substrate after 24 hrs post dose by continuous fluorometric assay

Mus musculus [17] = organism: Mus musculus; assay: animal or person; conditions: po, 24 h, read-out: INH
Mus musculus [18] = organism: Mus musculus; assay: animal or person; conditions: po, 24 h, read-out: INH; remark: listed apart in the source
Mus musculus [19] = organism: Mus musculus; assay: animal or person; conditions: po, 24 h, read-out: INH; remark: listed apart in the source
Mus musculus [20] = assay: In-vivo inhibition of DPP4 in B6.V-Lep'ob/Lep'ob (ob/ob) mouse at 3 mg/kg, po administered as single dose using Gly-Pro-AMC as substrate after 24 hrs post dose by continuous fluorometric assay; format: functional, organism-based
Mus musculus [21] = organism: Mus musculus; conditions: ICR, 5 mg/kg
Description: as §1

Row | SMILES | half-life [1] | AUCt [2] | AUC [3] | clearance [4] | MRT inf [5] | Vd [6] | half-life [7] | AUCt [8] | AUC [9] | Cmax [10] | MRT inf [11] | Tmax [12] | bioavailability [13] | other results
1 | COc1cc2ccc3c(c2cc1OC)C[C@H](N)[C@@H](c1cc(F)c(F)cc1F)O3 | 3.87 h | 3380.54 µg/L/h | 3415 µg/L/h | 5 mL/min/kg | 4.87 h | 1.66 L/kg | 3.05 h | 6052.89 µg/L/h | 6091.31 µg/L/h | 502 ng/mL | 6.33 h | 4.67 h | 89.2% | Activity (Mus musculus [14]): Dose-dependent effect; inhibition (Mus musculus [15]): Dose-dependent effect; inhibition in vivo at 5 mg/kg (Mus musculus [16]): ≤ 80%; inhibition in vivo at 1 mg/kg (Mus musculus [17]): > 80%; inhibition in vivo at 3 mg/kg (Mus musculus [18]): > 80%; inhibition in vivo at 10 mg/kg (Mus musculus [19]): > 80%
2 | CS(=O)(=O)n1cc2c(n1)CN([C@H]1CO[C@H](c3cc(F)ccc3F)[C@@H](N)C1)C2 | – | – | – | – | – | – | – | – | – | – | – | – | – | inhibition (Mus musculus [20]): Active; inhibition (Mus musculus [21]): Active
3 | COc1cc2c3c(ccc2cc1S(C)(=O)=O)O[C@H](c1cc(F)c(F)cc1F)[C@@H](N)C3 | 5.35 h | 24208.7 µg/L/h | 25460.37 µg/L/h | 0.667 mL/min/kg | 7.56 h | 0.63 L/kg | 6.83 h | 26527.6 µg/L/h | 26373.69 µg/L/h | 2320 ng/mL | 9.05 h | 4.67 h | 54.8% | –
